Among the data in the OligoGym collection are target mRNA inhibition values, retold here.

Values joined by “and” are separate entries in the source; they are usually repeats but may differ in a detail not shown here. Identical values can stand only once. After the bases stand the sugars from the 5' end (letter, count) and the backbone: PS all phosphorothioate, else s phosphorothioate and o phosphodiester by linkage. Methylation of C is not given here. e = 2'-O-(2-methoxyethyl) (MOE); d = 2'-deoxy (DNA)

This series addresses DGAT2. As to conditions: ASO.

On to “GCCAACAAGTGGGAAATGCA (sugars e5 d10 e5, PS)”, for which the target mRNA inhibition (HepG2, 2.5 µM) was 51% and the target mRNA inhibition (HepG2, 10 µM) is 80%. Take “GCCAAGGACAGAGGTTCAAC (sugars e5 d10 e5, PS)”: the target mRNA inhibition is, setting by setting: (HepG2, 2.5 µM) 61%; (HepG2, 10 µM) 90%.

Take “GCCAATGCCTAGGTCACAGT (sugars e5 d10 e5, PS)”: the target mRNA inhibition was 87% and 93% (HepG2, 2.5 µM); 84% and 90% (HepG2, 10 µM). “GCCAGGTAAGGCCGTATGCC (sugars e5 d10 e5, PS)” displayed a target mRNA inhibition (HepG2, 0.12 µM) of 68%. The sequence “GCCAGTTTCACAAAGCCCTT (sugars e5 d10 e5, PS)” came in with a target mRNA inhibition (HepG2, 0.12 µM) of 34%. Consider “GCCCAGCACCAAGGAATGGT (sugars e5 d10 e5, PS)”, for which the target mRNA inhibition reads like this: (HepG2, 2.5 µM) 0%; (HepG2, 10 µM) 59%. “GCCCAGTTTCGGACCCACTG (sugars e2 d13 e5, PS)”: the target mRNA inhibition (HepG2, 0.12 µM) came out at 82%. Turning to “GCCCTCCTCGAAGATCACCT (sugars e5 d10 e5, PS)”, the target mRNA inhibition reads like this: (HepG2, 2.5 µM) 37%; (HepG2, 10 µM) 76%.

Consider “GCCTCGGTGTCCTCTCCTGT (sugars e5 d10 e5, PS)”, for which the target mRNA inhibition stood at 59% (HepG2, 2.5 µM) and 83% (HepG2, 10 µM).

For the sequence “GCCTGGACAAGTCCTGCCCA (sugars e2 d13 e5, PS)”, the target mRNA inhibition is 78% (HepG2, 0.12 µM); 44% and 45% (HepG2, 2.5 µM); 87% (HepG2, 10 µM); 55% (HepG2, 20 µM). As to “GCCTGGACAAGTCCTGCCCA (sugars e3 d14 e3, PS)”, the target mRNA inhibition (HepG2, 0.12 µM) came to 84%; the target mRNA inhibition (HepG2, 2.5 µM) was 45% and 42%; the target mRNA inhibition (HepG2, 10 µM) worked out at 89%; the target mRNA inhibition (HepG2, 20 µM) is 48%. Regarding “GCCTGGGAACTTCTTGCTCA (sugars e5 d10 e5, PS)”, the target mRNA inhibition (HepG2, 0.12 µM) worked out at 47%.

For “GCCTTGGGAAGTCTCTCATA (sugars e5 d10 e5, PS)”, the target mRNA inhibition runs as follows: (HepG2, 2.5 µM) 0%; (HepG2, 10 µM) 58%. “GCTAAGCTTATTAGGTGTCT (sugars e5 d10 e5, PS)”: the target mRNA inhibition is, setting by setting: (HepG2, 2.5 µM) 75% and 73%; (HepG2, 10 µM) 85% and 83%.

As to “GCTAGGACACCTGGAGCTGC (sugars e5 d10 e5, PS)”, the target mRNA inhibition (HepG2, 10 µM) was 95% and 80% and 96%.

With “GCTCAGAGACTCAGCCGCAC (sugars e5 d10 e5, PS)”, the target mRNA inhibition is, setting by setting: (HepG2, 0.12 µM) 86%; (HepG2, 2.5 µM) 41%; (HepG2, 10 µM) 60%; (HepG2, 20 µM) 47%.

Turning to “GCTGAGTCTGTGCTGCA (sugars e3 d10 e4, PS)”, the target mRNA inhibition is, setting by setting: (HepG2, 2.5 µM) 56%; (HepG2, 10 µM) 85%. Taken in the same sequence, the figures for “GCTTCCTCCCACTTCAGTTT (sugars e5 d10 e5, PS)” were 55% and 83%. For the sequence “GCTTGTACACTTCATTCTCT (sugars e5 d10 e5, PS)”, the target mRNA inhibition reads like this: (HepG2, 2.5 µM) 42%; (HepG2, 10 µM) 85%. Taken in the same sequence, the figures for “GCTTGTCGAAGAGCTTCACC (sugars e5 d10 e5, PS)” were 25% and 78%. “GGAACTTCTTCTGGACCCAT (sugars e5 d10 e5, PS)”: the target mRNA inhibition (HepG2, 0.12 µM) stood at 36%. In turn, “GGACCCCGGAGTAGGCGGCT (sugars e5 d10 e5, PS)” displayed a target mRNA inhibition (HepG2, 2.5 µM) of 30% and a target mRNA inhibition (HepG2, 10 µM) of 82%. “GGAGCCCTCACAGGGCCAGG (sugars e5 d10 e5, PS)” showed a target mRNA inhibition (HepG2, 0.12 µM) of 38%.

Sequence “GGAGCTCAGAGACTCAGCCG (sugars e3 d14 e3, PS)” gave a target mRNA inhibition (HepG2, 0.12 µM) of 81%; a target mRNA inhibition (HepG2, 2.5 µM) of 17%; a target mRNA inhibition (HepG2, 10 µM) of 53%; a target mRNA inhibition (HepG2, 20 µM) of 25%. “GGAGTTTGTGTTTCCCATTT (sugars e5 d10 e5, PS)”: the target mRNA inhibition (HepG2, 2.5 µM) was 81% and 72%; the target mRNA inhibition (HepG2, 10 µM) was 91% and 84%. For “GGATGTGTCATTTCCCCTGG (sugars e5 d10 e5, PS)”, the target mRNA inhibition reads like this: (HepG2, 2.5 µM) 66%; (HepG2, 10 µM) 96%. Take “GGCACCAGCCCCCAGGTGTC (sugars e5 d10 e5, PS)”: where the note is “HepG2, 0.12 µM”, the target mRNA inhibition stood at 30%.

On to “GGCATGCTTCCTCCCACTTC (sugars e5 d10 e5, PS)”, for which the target mRNA inhibition worked out at 67% (HepG2, 2.5 µM) and 72% (HepG2, 10 µM). Sequence “GGCATGGAGCTCAGAGACTC (sugars e2 d13 e5, PS)” yielded a target mRNA inhibition (HepG2, 0.12 µM) of 77%.

Consider “GGCCCAGATTTAGCCACCAC (sugars e5 d10 e5, PS)”, for which the target mRNA inhibition came to 51% (HepG2, 2.5 µM) and 79% (HepG2, 10 µM).

“GGCCCCAGGAGCCCTCCTCG (sugars e5 d10 e5, PS)”: the target mRNA inhibition (HepG2, 0.12 µM) stood at 40%. On to “GGCTCAGTTCACCTCCAGGA (sugars e5 d10 e5, PS)”, for which the target mRNA inhibition came out at 56% (HepG2, 2.5 µM) and 90% (HepG2, 10 µM). In the case of “GGCTTGGAGTAGGGCACCAG (sugars e5 d10 e5, PS)”, the target mRNA inhibition (HepG2, 0.12 µM) was determined as 56%. Still for that read-out and setting: the value for “GGGAAGGATACCGCCAATGA (sugars e5 d10 e5, PS)” was 57%; that for “GGGAAGGTAAACTGAGGCCA (sugars e5 d10 e5, PS)” was 32%; that for “GGGATGATAAACACTAAGGT (sugars e5 d10 e5, PS)” was 37%. “GGGTCCTCTCCGCTGCC (sugars e3 d10 e4, PS)”: the target mRNA inhibition runs as follows: (HepG2, 2.5 µM) 47%; (HepG2, 10 µM) 69%.

Consider “GGTAAGGCCAAGGAAGTGAG (sugars e5 d10 e5, PS)”, for which the target mRNA inhibition was found to be 66% (HepG2, 2.5 µM) and 80% (HepG2, 10 µM). On to “GGTCAGCAGGTTGTGTGTCT (sugars e5 d10 e5, PS)”, for which the target mRNA inhibition (HepG2, 0.12 µM) is 45% and 62%. As to “GGTCAGCCTCGGCCTGACGC (sugars e5 d10 e5, PS)”, for the setting “HepG2, 0.12 µM”, the target mRNA inhibition was 11%. Take “GGTTGTGTGTCTTCACCAGC (sugars e5 d10 e5, PS)”: the target mRNA inhibition was 64% and 70% (HepG2, 0.12 µM); 0% (HepG2, 2.5 µM). “GTAGCTGCTTTTCCACCTTG (sugars e5 d10 e5, PS)” registered a target mRNA inhibition (HepG2, 0.12 µM) of 43%. On the same count and under the same terms, the figure for “GTAGGGCACCAGCCCCCAGG (sugars e5 d10 e5, PS)” is 23%. The sequence “GTCAAACCTAGGTTCAGACT (sugars e5 d10 e5, PS)” showed a target mRNA inhibition (HepG2, 2.5 µM) of 68% and a target mRNA inhibition (HepG2, 10 µM) of 87%. Regarding “GTCATCCAGTATAGCCTAAT (sugars e5 d10 e5, PS)”, under “HepG2, 0.12 µM”, the target mRNA inhibition was found to be 44%. The same measure, in the same setting: the figure for “GTCCTGGAGGGCGGAGAGGA (sugars e5 d10 e5, PS)” is 32%. Take “GTCTCATTCATCTGGGCCCT (sugars e5 d10 e5, PS)”: the target mRNA inhibition reads like this: (HepG2, 2.5 µM) 69%; (HepG2, 10 µM) 86%. For the sequence “GTGCTCTGTGGGCTCCT (sugars e3 d10 e4, PS)”, the target mRNA inhibition (HepG2, 2.5 µM) was 55% and 70%; the target mRNA inhibition (HepG2, 10 µM) was 85% and 89%. “GTGGTGATGGGCTTGGAGTA (sugars e5 d10 e5, PS)” displayed a target mRNA inhibition (HepG2, 0.12 µM) of 23%. In the case of “GTGTACTTTGAGCATCCCCA (sugars e5 d10 e5, PS)”, the target mRNA inhibition (HepG2, 2.5 µM) was 63% and 62%; the target mRNA inhibition (HepG2, 10 µM) is 88% and 87%.

“GTTCCAGTCAAACACCAGCC (sugars e5 d10 e5, PS)” showed a target mRNA inhibition (HepG2, 0.12 µM) of 31%. Take “GTTGGGCAGTCACCATTTGC (sugars e5 d10 e5, PS)”: the target mRNA inhibition runs as follows: (HepG2, 2.5 µM) 21%; (HepG2, 10 µM) 58%. Regarding “GTTGTGTGTCTTCACCAGCT (sugars e3 d14 e3, PS)”, the target mRNA inhibition (HepG2, 0.12 µM) was 56%. Same read-out and setting: the value for “GTTTCGGACCCACTGTGACC (sugars e2 d13 e5, PS)” was 70%; that for “GTTTCGGACCCACTGTGACC (sugars e3 d14 e3, PS)” was 71%; that for “TAAAGAGGCTGGGCCATAGA (sugars e5 d10 e5, PS)” was 21%. For the setting “HepG2, 0.12 µM”, “TACAAAAGTCTGACATGGTG (sugars e5 d10 e5, PS)” showed a target mRNA inhibition of 40%. On the same count and under the same terms, the value for “TAGAAATACAATTCCTGGAT (sugars e5 d10 e5, PS)” was 71%; that for “TAGCATTGCCACTCCCATTC (sugars e3 d14 e3, PS)” was 68%; that for “TAGCCAGGTAAGGCCGTATG (sugars e5 d10 e5, PS)” was 56% and 60%. On the same count and under the same terms, the value for “TAGCCTGGCTTTGATAACCC (sugars e5 d10 e5, PS)” was 42%; that for “TAGCTCATGGTGGCGGCATC (sugars e5 d10 e5, PS)” was 35%. On the same count and under the same terms, the value for “TAGGGCACCAGCCCCCAGGT (sugars e5 d10 e5, PS)” was 32%. Take “TATTCATCTTTCCAGATCCG (sugars e5 d10 e5, PS)”: the target mRNA inhibition by setting is: (HepG2, 2.5 µM) 66%; (HepG2, 10 µM) 91%.

“TATTCTAAAACTCAAATCCA (sugars e5 d10 e5, PS)” returned a target mRNA inhibition (HepG2, 2.5 µM) of 21% and a target mRNA inhibition (HepG2, 10 µM) of 75%. Where the note is “HepG2, 0.12 µM”, “TCACTGATGACATATCCCCA (sugars e5 d10 e5, PS)” returned a target mRNA inhibition of 52%. Take “TCAGGACCTCAGGGCTGGCC (sugars e5 d10 e5, PS)”: the target mRNA inhibition (HepG2, 2.5 µM) came to 64% and the target mRNA inhibition (HepG2, 10 µM) worked out at 82%. For the sequence “TCAGTTCACCTCCAGGACCT (sugars e5 d10 e5, PS)”, where the note is “HepG2, 0.12 µM”, the target mRNA inhibition is 46%.

In the case of “TCATTCTCTCCAAAGGAGTA (sugars e5 d10 e5, PS)”, the target mRNA inhibition (HepG2, 0.12 µM) was found to be 18%. On the same count and under the same terms, the figure for “TCATTTCATAGATGAGGAGA (sugars e5 d10 e5, PS)” is 34%.

Regarding “TCCATGTCAGAGAGGCT (sugars e3 d10 e4, PS)”, the target mRNA inhibition was 78% and 76% (HepG2, 2.5 µM); 65% and 89% (HepG2, 10 µM). For the sequence “TCCGCAGGGTGACTGCATTC (sugars e5 d10 e5, PS)”, the target mRNA inhibition (HepG2, 0.12 µM) amounted to 48%. The same measure, in the same setting: the figure for “TCCGGTCAGCCTCGGCCTGA (sugars e5 d10 e5, PS)” is 20%. On to “TCCTCTCCTGTTTGATGGGT (sugars e5 d10 e5, PS)”, for which the target mRNA inhibition reads like this: (HepG2, 2.5 µM) 83% and 90%; (HepG2, 10 µM) 89% and 84%. Take “TCCTTTGAAATCCAATGCAC (sugars e5 d10 e5, PS)”: the target mRNA inhibition by setting is: (HepG2, 2.5 µM) 75% and 63%; (HepG2, 10 µM) 87% and 77%.
